Experimental data: patent US6500853B1, “Inhibitors of phospholipase enzymes” (Genetics Institute, LLC, priority 1998, dated 2002)

Columns and labels:
cPLA2 = biological target: T1, cPLA2 (Homo sapiens, UniProt P47712); test: Coumarin Assay (cPLA2 inhibition); type: biochemical; details: for inhibition at 7 µM: CONCENTRATION 7 micromolar; for inhibition at 80 µM: CONCENTRATION 80 micromolar; for inhibition at 30 µM: CONCENTRATION 30 micromolar; for inhibition at 24 µM: CONCENTRATION 24 micromolar
T1 sequence (P47712 1-749): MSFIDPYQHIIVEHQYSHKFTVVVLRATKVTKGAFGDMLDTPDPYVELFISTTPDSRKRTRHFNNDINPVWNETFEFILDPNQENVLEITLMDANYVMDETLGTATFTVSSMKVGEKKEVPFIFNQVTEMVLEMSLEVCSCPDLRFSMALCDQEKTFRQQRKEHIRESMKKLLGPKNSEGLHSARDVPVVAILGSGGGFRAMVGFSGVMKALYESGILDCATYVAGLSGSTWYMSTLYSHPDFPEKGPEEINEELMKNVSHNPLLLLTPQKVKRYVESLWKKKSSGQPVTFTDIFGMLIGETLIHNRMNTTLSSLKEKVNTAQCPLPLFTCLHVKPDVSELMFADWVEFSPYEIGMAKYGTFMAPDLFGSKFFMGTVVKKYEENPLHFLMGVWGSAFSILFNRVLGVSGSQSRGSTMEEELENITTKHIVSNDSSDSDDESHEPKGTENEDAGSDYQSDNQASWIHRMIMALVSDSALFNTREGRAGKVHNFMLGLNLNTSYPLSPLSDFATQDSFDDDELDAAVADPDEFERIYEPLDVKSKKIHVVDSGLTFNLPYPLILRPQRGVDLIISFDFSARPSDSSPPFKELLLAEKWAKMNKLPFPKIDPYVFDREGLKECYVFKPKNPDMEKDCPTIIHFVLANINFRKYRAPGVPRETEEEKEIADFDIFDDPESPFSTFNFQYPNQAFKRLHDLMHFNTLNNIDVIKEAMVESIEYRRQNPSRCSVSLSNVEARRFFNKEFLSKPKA
Outline: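 Percent inhibition at the stated concentration, from the rate of 460 nm emission rise (360 nm excitation) per minute. Reaction started by adding 4 μg enzyme to compound and 60 μM 7-hydroxycoumarinyl 6-heptenoate in Hepes buffer pH 7.5 with 1 mM EDTA.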

[1] = tested on: Rat Carrageenan-Induced Footpad Edema; test: Rat Carrageenan-Induced Footpad Edema Test; type: in vivo, male Sprague Dawley rats; details: Rattus norvegicus, 3 h, footpad volume 3 hours after carrageenan, read-out: PERCENT INHIBITION; for inhibition in vivo at 5 mg/kg: iv, IV
[2] = CONCENTRATION 100 micromolar, read-out: PERCENT INHIBITION @

## COc1cc(C(=O)O)ccc1Cc1cn(C(c2ccccc2)c2ccccc2)c2ccc(NS(=O)(=O)c3ccc(Cl)c([N+](=O)[O-])c3)cc12 [Example 91, 4-[(1-benzhydryl-5-{[(4-chloro-3-nitrophenyl)sulfonyl]amino}-1H-indol-3-yl)methyl]-3-methoxybenzoic acid]
cPLA2; CONCENTRATION 3.8 micromolar, read-out: PERCENT INHIBITION @
  inhibition at 3.8 µM: 50%
cPLA2; CONCENTRATION 4.25 micromolar, read-out: PERCENT INHIBITION @
  inhibition at 4.25 µM: 50%
[1]; po, PO
  inhibition in vivo at 2 mg/kg: 13.5%
  inhibition in vivo at 10 mg/kg: 14.7%

## COc1cc(C(=O)O)ccc1Cc1cn(C(c2ccccc2)c2ccccc2)c2ccc(NS(=O)(=O)c3ccc(OC(F)(F)F)cc3)cc12 [Example 93, 4-{[1-benzhydryl-5-({[4-(trifluoromethoxy)phenyl]sulfonyl}amino)-1H-indol-3-yl]methyl}-3-methoxybenzoic acid]
cPLA2; CONCENTRATION 4.2 micromolar, read-out: PERCENT INHIBITION @
  inhibition at 4.2 µM: 50%
cPLA2; CONCENTRATION 4.9 micromolar, read-out: PERCENT INHIBITION @
  inhibition at 4.9 µM: 50%
[1]; po, PO
  inhibition in vivo at 2 mg/kg: -3.02%
  inhibition in vivo at 10 mg/kg: 9.91%

## COc1cc(C(=O)O)ccc1Cc1cn(C(c2ccccc2)c2ccccc2)c2ccc(NS(=O)(=O)c3ccccc3C)cc12 [Example 94, 4-[(1-benzhydryl-5-{[(2-methylphenyl)sulfonyl]amino}-1H-indol-3-yl)methyl]-3-methoxybenzoic acid]
cPLA2; read-out: PERCENT INHIBITION @
  inhibition at 7 µM: 50%
cPLA2; CONCENTRATION 7.5 micromolar, read-out: PERCENT INHIBITION @
  inhibition at 7.5 µM: 50%
[1]; po, PO
  inhibition in vivo at 2 mg/kg: 19%
[1]; po, PO, 3 mg/Kg
  inhibition in vivo at 3 mg/kg: 3.13%

## COc1cc(C(=O)O)ccc1Cc1cn(C(c2ccccc2)c2ccccc2)c2ccc(NS(=O)(=O)c3c(C)nn(C)c3Cl)cc12 [Example 95, 4-[(1-benzhydryl-5-{[(5-chloro-1,3-dimethyl-1H-pyrazol-4-yl)sulfonyl]amino}-1H-indol-3-yl)methyl]-3-methoxybenzoic acid]
cPLA2; CONCENTRATION 11.5 micromolar, read-out: PERCENT INHIBITION @
  inhibition at 11.5 µM: 50%
cPLA2; CONCENTRATION 13 micromolar, read-out: PERCENT INHIBITION @
  inhibition at 13 µM: 50%
[1]; po, PO
  inhibition in vivo at 2 mg/kg: 14.9%
  inhibition in vivo at 10 mg/kg: 23.2%

## COc1cc(C(=O)O)ccc1Cc1cn(C(c2ccccc2)c2ccccc2)c2ccc(NS(=O)(=O)c3c(C)noc3C)cc12 [Example 96, 4-[(1-benzhydryl-5-{[(3,5-dimethyl-4-isoxazolyl)sulfonyl]amino}-1H-indol-3-yl)methyl]-3-methoxybenzoic acid]
cPLA2; CONCENTRATION 8 micromolar, read-out: PERCENT INHIBITION @
  inhibition at 8 µM: 50%
cPLA2; CONCENTRATION 10.5 micromolar, read-out: PERCENT INHIBITION @
  inhibition at 10.5 µM: 50%
[1]; po, PO
  inhibition in vivo at 2 mg/kg: 29.4%
  inhibition in vivo at 10 mg/kg: 22%

## COc1cc(C(N)=O)ccc1Cc1cn(C(c2ccccc2)c2ccccc2)c2ccc(NC(=O)OC3CCCC3)cc12 [Example 97, Cyclopentyl-N-{3-[4-(aminocarbonyl)-2-methoxybenzyl]-1-benzhydryl-1H-indol-5-yl}carbamate]
cPLA2; CONCENTRATION 50 micromolar, read-out: PERCENT INHIBITION @
  inhibition at 50 µM: 50%
cPLA2; read-out: PERCENT INHIBITION @
  inhibition at 80 µM: 50%
cPLA2; CONCENTRATION 94 micromolar, read-out: PERCENT INHIBITION @
  inhibition at 94 µM: 50%
[1]
  inhibition in vivo at 5 mg/kg: 21.3%

## COc1cc(-c2nnn[nH]2)ccc1Cc1cn(C(c2ccccc2)c2ccccc2)c2ccc(NC(=O)OC3CCCC3)cc12 [Example 98, cyclopentyl N-{1-benzhydryl-3-[2-methoxy-4-(1H-1,2,3,4-tetraazol-5-yl)benzyl]-1H-indol-5-yl}carbamate]
cPLA2; CONCENTRATION 4.8 micromolar, read-out: PERCENT INHIBITION @
  inhibition at 4.8 µM: 50%
cPLA2; CONCENTRATION 6.25 micromolar, read-out: PERCENT INHIBITION @
  inhibition at 6.25 µM: 66%
cPLA2; CONCENTRATION 8.7 micromolar, read-out: PERCENT INHIBITION @
  inhibition at 8.7 µM: 50%
[1]
  inhibition in vivo at 5 mg/kg: 18.4%

## O=C(O)c1cscc1NC(=O)c1cn(C(c2ccccc2)c2ccccc2)c2ccc(NC(=O)C3CCCC3)cc12 [Example 99, 4-[({1-benzhydryl-5-[(cyclopentylcarbonyl)amino]-1H-indol-3-yl}carbonyl)amino]-3-thiophenecarboxylic acid]
cPLA2; read-out: PERCENT INHIBITION @
  inhibition at 30 µM: 13%
cPLA2; CONCENTRATION 100 micromolar
  PERCENT INHIBITION @: 50%
cPLA2; [2]
  inhibition at 100 µM: 38%
[1]; po, PO
  inhibition in vivo at 2 mg/kg: 24.5%
  inhibition in vivo at 10 mg/kg: 22.8%

## O=C(O)c1cccc(NC(=O)c2cn(C(c3ccccc3)c3ccccc3)c3ccc(NC(=O)C4CCCC4)cc23)c1 [Example 100, 3-[({1-benzhydryl-5-[(cyclopentylcarbonyl)amino]-1H-indol-3-yl}carbonyl)amino]benzoic acid]
cPLA2; read-out: PERCENT INHIBITION @
  inhibition at 24 µM: 50%
  inhibition at 30 µM: 50%
  inhibition at 80 µM: 50%
[1]; po, PO
  inhibition in vivo at 2 mg/kg: 6.14%
  inhibition in vivo at 10 mg/kg: 20.7%

## O=C(O)CCNC(=O)c1cn(C(c2ccccc2)c2ccccc2)c2ccc(NC(=O)C3CCCC3)cc12 [Example 101, 3-[({1-benzhydryl-5-[(cyclopentylcarbonyl)amino]-1H-indol-3-yl}carbonyl)amino]propanoic acid]
cPLA2; [2]
  inhibition at 100 µM: 6%
cPLA2; CONCENTRATION 400 micromolar, read-out: PERCENT INHIBITION @
  inhibition at 400 µM: 49%
[1]; po, PO
  inhibition in vivo at 2 mg/kg: 11.2%
  inhibition in vivo at 10 mg/kg: 12.4%

## Cc1ccccc1S(=O)(=O)NC(=O)c1cn(C(c2ccccc2)c2ccccc2)c2ccc(NC(=O)C3CCCC3)cc12 [Example 102, N-[1-benzhydryl-3-({[(2-methylphenyl)sulfonyl]amino}carbonyl)-1H-indol-5-yl]cyclopentanecarboxamide]
cPLA2; CONCENTRATION 20 micromolar, read-out: PERCENT INHIBITION @
  inhibition at 20 µM: 31%
cPLA2; CONCENTRATION 48 micromolar, read-out: PERCENT INHIBITION @
  inhibition at 48 µM: 50%
[1]; po, PO
  inhibition in vivo at 2 mg/kg: 2.56%
  inhibition in vivo at 10 mg/kg: 8.48%

## O=C(O)CCNC(=O)C(=O)c1cn(C(c2ccccc2)c2ccccc2)c2ccc(NC(=O)C3CCCC3)cc12 [Example 103, 3-[(2-{1-benzhydryl-5-[(cyclopentylcarbonyl)amino]-1H-indol-3-yl}-2-oxoacetyl)amino]propanoic acid]
cPLA2; [2]
  inhibition at 100 µM: 50%
cPLA2; CONCENTRATION 104 micromolar, read-out: PERCENT INHIBITION @
  inhibition at 104 µM: 50%
[1]; po, PO
  inhibition in vivo at 2 mg/kg: 16.5%
  inhibition in vivo at 10 mg/kg: 17.3%

## O=C(Nc1cccc(C(=O)O)c1)C(=O)c1cn(C(c2ccccc2)c2ccccc2)c2ccc(NC(=O)C3CCCC3)cc12 [Example 104, 3-[(2-{1-benzhydryl-5-[(cyclopentylcarbonyl)amino]-1H-indol-3-yl}-2-oxoacetyl)amino]benzoic acid]
cPLA2; CONCENTRATION 22 micromolar, read-out: PERCENT INHIBITION @
  inhibition at 22 µM: 50%
cPLA2; read-out: PERCENT INHIBITION @
  inhibition at 24 µM: 50%
[1]; po, PO
  inhibition in vivo at 2 mg/kg: 14.5%
  inhibition in vivo at 10 mg/kg: 6.01%

## O=C(Cc1cn(Cc2ccc(Cc3ccccc3)cc2)c2ccc(OCc3ccccc3)cc12)Nc1cccc(C(=O)O)c1 [Example 105, 3-({2-[1-(4-benzylbenzyl)-5-(benzyloxy)-1H-indol-3-yl]acetyl}amino)benzoic acid]
cPLA2; CONCENTRATION 2.4 micromolar, read-out: PERCENT INHIBITION @
  inhibition at 2.4 µM: 50%
cPLA2; read-out: PERCENT INHIBITION @
  inhibition at 7 µM: 50%
cPLA2; CONCENTRATION 10 micromolar, read-out: PERCENT INHIBITION @
  inhibition at 10 µM: 74%
[1]
  inhibition in vivo at 5 mg/kg: 1.51%

## O=C(O)c1cn(C(c2ccccc2)c2ccccc2)c2ccc(NC(=O)C3CCCC3)cc12 [Example 114, 1-benzhydryl-5-[(cyclopentylcarbonyl)amino]-1H-indole-3-carboxylic acid]
cPLA2; [2]
  inhibition at 100 µM: 45%
cPLA2; CONCENTRATION 152 micromolar, read-out: PERCENT INHIBITION @
  inhibition at 152 µM: 50%
cPLA2; CONCENTRATION 170 micromolar, read-out: PERCENT INHIBITION @
  inhibition at 170 µM: 50%
[1]; po, PO
  inhibition in vivo at 2 mg/kg: 12.2%
  inhibition in vivo at 10 mg/kg: 22.2%
